“Also recorded” adds a separate entry of the source. Where two headings read alike, the source gives them in different places.
Columns and labels:
CbpA [1] = biological target: T1, CbpA (Acetivibrio thermocellus (Clostridium thermocellum), UniProt A3DCF2); experiment: NMR titration (1H-15N HSQC) of 15N-labelled CbpA with saccharides; assay type: binding; details: 298 K, pH 6.5, protein:substrate up to 1:20
Experimental: (§1) NMR titration experiments were performed at 298 K on a Bruker Avance III 600 MHz NMR spectrometer equipped with a cryoprobe. The ^15N-labeled protein samples contained 0.1 or 0.2 mM sugar-binding protein in 20 mM Bis-Tris (pH 6.5), 100 mM KCl, 0.02% (wt/vol) dextran sulfate sodium, and 90% H2O/10% D2O. The concentrations of carbohydrate substrates were 10, 20, or 100 mM in the same buffer. For the titration, the substrates were gradually added to the labeled proteins until the ratio of their concentrations reached 1:20. A series of two-dimensional ^1H-^15N HSQC spectra were recorded at different protein-substrate ratios during the titration.

CbpB [2] = biological target: T2, CbpB (Acetivibrio thermocellus (Clostridium thermocellum), UniProt A3DE73, V209A/V350L); experiment: NMR titration (1H-15N HSQC) of 15N-labelled CbpB with saccharides; assay type: binding; details: 298 K, pH 6.5, protein:substrate up to 1:20
Experimental: as §1

CbpB [3] = biological target: T2, CbpB; experiment: ITC titration of carbohydrate ligands with CbpB; assay type: binding
Experimental: (§2) Isothermal titration calorimetry measurements were performed at 30°C using a MicroCal PEAQ-ITC (Malvern Panalytical Ltd., Malvern, United Kingdom). Protein samples were dialyzed against buffer containing 50 mM Tris-HCl (pH 8.0) and 100 mM NaCl. Carbohydrate-ligand solutions of cellodextrins, glucose, and xylose were prepared using the same buffer as for protein dialysis. The sample cell was loaded with 280 μL of protein sample (~50 μM), and the reference cell contained distilled water. The syringe was filled with 50 μL of ligand (500 to 750 μM). Titrations were carried out by adding 0.8 μL of ligand for the first injection and 2 μL for the subsequent 19 injections, with stirring at 750 rpm. Binding parameters were determined by fitting the experimental binding isotherms using a single-site model.

C. thermocellum cells = experiment: Cell-associated cellulosome (cellulase) activity measurement; assay type: cell-based, Clostridium thermocellum; details: glucose+cellobiose medium vs glucose medium
Experimental: C. thermocellum cells were cultivated to the early exponential stage with various carbon sources. Cell suspensions (1.0 mL) were sampled and centrifuged at 15,000 × g for 10 min to separate supernatant from the pellet. Cell-associated cellulosome activity was measured in a 1.0-mL reaction volume containing the pellet and 15 mg Avicel as the substrate, using GS-2 medium as the reaction buffer. The concentration of reducing sugars was determined by the 3,5-dinitrosalicylic acid method after incubation at 55°C for 24 h unless otherwise stated. One unit of enzyme activity is defined as the amount of enzyme that releases 1 nmol reducing sugar (glucose equivalent) per min.

CbpC = test system: CbpC; parameters: method as in PMID 18952792; details: cited from earlier work
CbpA [4] = biological target: T1, CbpA; experiment: ITC titration of carbohydrate ligands with CbpA; assay type: binding
Experimental: as §2

Lbp = test system: Lbp; parameters: method as in PMID 18952792; details: previous study; cited from earlier work
CbpD [5] = experiment: ITC titration of carbohydrate ligands with CbpD; assay type: binding, Clostridium thermocellum; details: 30°C
Experimental: as §2

CbpD [6] = experiment: NMR titration of 15N-labelled CbpD with saccharides; assay type: binding, Clostridium thermocellum; details: 298 K
Experimental: as §1

[7] = ITC, 30°C, 50 mM Tris-HCl pH 8.0, 100 mM NaCl, single-site model
[8] = ITC, 30°C, 50 mM Tris-HCl pH 8.0, 100 mM NaCl, single-site model, read-out: KD (dissociation constant)

T1 sequence (A3DCF2 entry or part of it): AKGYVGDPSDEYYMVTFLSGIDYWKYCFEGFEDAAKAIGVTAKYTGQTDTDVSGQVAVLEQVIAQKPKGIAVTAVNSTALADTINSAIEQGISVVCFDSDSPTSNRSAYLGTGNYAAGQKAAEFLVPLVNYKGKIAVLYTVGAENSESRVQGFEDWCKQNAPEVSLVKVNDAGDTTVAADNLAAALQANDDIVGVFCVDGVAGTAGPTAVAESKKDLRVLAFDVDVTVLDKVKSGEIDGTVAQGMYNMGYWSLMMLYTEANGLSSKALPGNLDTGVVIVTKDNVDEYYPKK
T2 sequence (A3DE73 entry or part of it V209A/V350L): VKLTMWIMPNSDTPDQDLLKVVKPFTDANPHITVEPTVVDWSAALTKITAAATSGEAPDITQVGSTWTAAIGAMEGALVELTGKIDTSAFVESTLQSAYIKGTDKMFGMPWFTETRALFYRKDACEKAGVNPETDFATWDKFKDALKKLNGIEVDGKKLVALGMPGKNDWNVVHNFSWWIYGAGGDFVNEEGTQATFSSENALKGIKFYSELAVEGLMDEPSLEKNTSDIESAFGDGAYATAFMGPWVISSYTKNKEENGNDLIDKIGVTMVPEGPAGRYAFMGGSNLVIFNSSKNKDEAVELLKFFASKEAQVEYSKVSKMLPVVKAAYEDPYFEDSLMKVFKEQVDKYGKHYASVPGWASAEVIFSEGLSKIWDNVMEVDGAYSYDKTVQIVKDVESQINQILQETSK

Structure (SMILES): O=C[C@H](O)[C@@H](O)[C@H](O[C@@H]1O[C@H](CO)[C@@H](O)[C@H](O)[C@H]1O)[C@H](O)CO [Cellobiose, cellobiose]
- binding to CbpA in NMR titration (HSQC peak shifts) (CbpA [1]): not
- binding to CbpB in NMR titration (HSQC peak shifts) (CbpB [2]): can bind; also recorded: significant peak shifts
- Kd (CbpB [3]): 1.89 ± 0.36 µM
- Ka (CbpB [3]; ITC, 30°C): 5.29 ± 0.99 ×10^5 · M^−1
- TΔS (CbpB [3]; ITC, 30°C): 19.5 kJ/mol
- ΔG (CbpB [3]; ITC, 30°C): -33.2 kJ/mol
- ΔH (change in enthalpy) (CbpB [3]; ITC, 30°C): -13.7 ± 0.4 kJ/mol
- N (number of binding site) (CbpB [3]; [7]): 1.03 ± 0.02
- induction effect on cellulosome expression (cellulase activity) (C. thermocellum cells; wild-type cells, 5 g/L cellobiose): significant induction effect
- induction effect on cellulosome expression (cellulase activity) (C. thermocellum cells; ΔtransporterB and Δ2554 cells): no induction effect

Structure (SMILES): OC[C@H]1O[C@@H](O[C@H]2[C@H](O)[C@@H](O)[C@H](O[C@H]3[C@H](O)[C@@H](O)[C@H](O[C@H]4[C@H](O)[C@@H](O)[C@H](O[C@H]5[C@H](O)[C@@H](O)C(O)O[C@@H]5CO)O[C@@H]4CO)O[C@@H]3CO)O[C@@H]2CO)[C@H](O)[C@@H](O)[C@@H]1O (some centres unmarked) [Cellopentaose, cellopentaose]
- Ka (CbpB [3]; ITC, 30°C): 14.9 ± 3.3 ×10^5 · M^−1
- TΔS (CbpB [3]; ITC, 30°C): 47.3 kJ/mol
- ΔG (CbpB [3]; ITC, 30°C): -35.9 kJ/mol
- ΔH (change in enthalpy) (CbpB [3]; ITC, 30°C): 11.5 ± 0.3 kJ/mol
- N (number of binding site) (CbpB [3]; [7]): 1.02 ± 0.01
- Kd (CbpB [3]; [8]): 0.67 ± 0.15 µM

Structure (SMILES): OC[C@H]1O[C@@H](O[C@H]2[C@H](O)[C@@H](O)[C@H](O[C@H]3[C@H](O)[C@@H](O)[C@H](O[C@H]4[C@H](O)[C@@H](O)C(O)O[C@@H]4CO)O[C@@H]3CO)O[C@@H]2CO)[C@H](O)[C@@H](O)[C@@H]1O (some centres unmarked) [Cellotetraose, cellotetraose]
- Ka (CbpB [3]; ITC, 30°C): 17.8 ± 2.5 ×10^5 · M^−1
- TΔS (CbpB [3]; ITC, 30°C): 43.3 kJ/mol
- interaction with CbpB in ITC, in words (CbpB [3]; ITC, 30°C): highest binding affinity
- ΔG (CbpB [3]; ITC, 30°C): -36.3 kJ/mol
- ΔH (change in enthalpy) (CbpB [3]; ITC, 30°C): 6.95 ± 0.11 kJ/mol
- N (number of binding site) (CbpB [3]; [7]): 1.02 ± 0.08
- Kd (CbpB [3]; ITC, 30°C, 50 mM Tris-HCl pH 8.0, 100 mM NaCl, single-site model, listed as cellotetraose, read-out: KD (dissociation constant)): 0.562 µM
- Kd (CbpB [3]; [8]): 0.56 ± 0.08 µM

Structure (SMILES): OC[C@H]1O[C@@H](O[C@H]2[C@H](O)[C@@H](O)[C@H](O[C@H]3[C@H](O)[C@@H](O)C(O)O[C@@H]3CO)O[C@@H]2CO)[C@H](O)[C@@H](O)[C@@H]1O (some centres unmarked) [Cellotriose, cellotriose]
- binding to CbpA in NMR titration (HSQC peak shifts) (CbpA [1]): not
- binding to CbpB in NMR titration (HSQC peak shifts) (CbpB [2]): significant peak shifts
- Ka (CbpB [3]; ITC, 30°C): 8.55 ± 1.69 ×10^5 · M^−1
- TΔS (CbpB [3]; ITC, 30°C): 44.9 kJ/mol
- ΔG (CbpB [3]; ITC, 30°C): -34.5 kJ/mol
- ΔH (change in enthalpy) (CbpB [3]; ITC, 30°C): 10.4 ± 0.3 kJ/mol
- N (number of binding site) (CbpB [3]; [7]): 0.97 ± 0.02
- Kd (CbpB [3]; [8]): 1.17 ± 0.23 µM

Structure (SMILES): OC[C@H]1OC(O)[C@H](O)[C@@H](O)[C@@H]1O (some centres unmarked) [Glucose, glucose]
- binding to CbpC in previous ITC experiments (CbpC): can bind
- binding to CbpA in NMR titration (HSQC peak shifts) (CbpA [1]): binds; also recorded: significant peak shifts
- binding to CbpB in NMR titration (HSQC peak shifts) (CbpB [2]): not
- interaction with CbpB in ITC, in words (CbpB [3]; ITC, 30°C): could not be fitted to obtain reasonable N and KD values
- Kd (CbpA [4]): 240 ± 95 µM
- binding to CbpA in ITC, in words (CbpA [4]; ITC): remarkably weak
- Ka (CbpA [4]; ITC, 30°C): 0.042 ± 0.016 ×10^5 · M^−1
- TΔS (CbpA [4]; ITC, 30°C): 22.7 kJ/mol
- ΔG (CbpA [4]; ITC, 30°C): -21.0 kJ/mol
- ΔH (change in enthalpy) (CbpA [4]; ITC, 30°C): 1.71 ± 0.36 kJ/mol
- N (number of binding site) (CbpA [4]; [7]): 1.06 ± 0.07

Structure (SMILES): OC[C@H]1O[C@@H](O[C@H]2[C@H](O)[C@@H](CO)OC(O)[C@@H]2O)[C@H](O)[C@@H](O)[C@@H]1O (some centres unmarked) [Laminaribiose, laminaribiose]
- binding to Lbp in ITC assays (Lbp): shown to bind
- Ka (CbpB [3]; ITC, 30°C): 0.93 ± 0.25 ×10^5 · M^−1
- TΔS (CbpB [3]; ITC, 30°C): 33.4 kJ/mol
- interaction with CbpB in ITC, in words (CbpB [3]; ITC, 30°C): lower affinity compared to cellobiose
- ΔG (CbpB [3]; ITC, 30°C): -28.9 kJ/mol
- ΔH (change in enthalpy) (CbpB [3]; ITC, 30°C): 4.57 ± 0.42 kJ/mol
- N (number of binding site) (CbpB [3]; [7]): 0.98 ± 0.04
- Kd (CbpB [3]; [8]): 10.7 ± 2.8 µM

Structure (SMILES): O=C[C@H](O)[C@@H](O)[C@H](O)CO [xylose]
- interaction with CbpD in ITC (CbpD [5]): could not detect any xylose-binding ability
- interaction with CbpD in NMR titration (CbpD [6]): could not detect any xylose-binding ability

Source: article PMC9601137, “Deciphering Cellodextrin and Glucose Uptake in Clostridium thermocellum” (mBio, 2022)
